In ChEMBL document CHEMBL6078687 (J Med Chem, 2024):

How the values were obtained:
[1] = Inhibition of neuraminidase in Influenza A virus A/Goose/Guangdong/SH7/2013 H5N1 using MUNANA as substrate incubated for 40 mins by […] based assay
[2] = Inhibition of neuraminidase in Influenza A virus A/Babol/36/2005 H3N2 using MUNANA as substrate incubated for 40 mins by […] based assay
[3] = test system: Influenza A virus; assay: microbe, parasite or virus in culture; conditions: A/Goose/Guangdong/SH7/2013 H5N1, CEF, 48 h
[4] = Cytotoxicity against CEF cells incubated for 48 hrs by CCK8 assay; type: toxicity, cell-based, Gallus gallus; conditions: chicken
[5] = test system: Influenza A virus; assay: microbe, parasite or virus in culture; conditions: A/PR/8/34 H1N1, MDCK, 48 h
[6] = Cytotoxicity against MDCK cells incubated for 48 hrs by MTT assay; type: toxicity, cell-based, Canis lupus familiaris; conditions: dog
[7] = test system: Influenza A virus; assay: microbe, parasite or virus in culture; conditions: A/Goose/Jiangsu/1306/2014 H5N8, CEF, 48 h
[8] = test system: Influenza A virus; assay: Antiviral activity against Influenza A virus A/WSN/67/05 H3N2 infected in MDCK cells assessed as inhibition of plaque formation measured after 2 days; conditions: A/WSN/67/05 H3N2, MDCK, 48 h
[9] = in vitro; conditions: human, liver microsomes
[10] = in vitro; conditions: human, liver microsomes; remark: listed apart in the source
[11] = Metabolic stability in human liver microsomes assessed as compound remaining incubated for 60 mins by LC-MS/MS analysis; type: ADME, Microsome; conditions: 1 h
[12] = in vitro; conditions: human, liver microsomes; remark: listed apart in the source

## CCC(CC)O[C@@H]1C=C(C(=O)O)C[C@H](NCc2ccc(-c3cccs3)cc2OC)[C@H]1NC(C)=O
[1]
  IC50: 1650 nM
[2]
  IC50: 2100 nM

## CCC(CC)O[C@@H]1C=C(C(=O)O)C[C@H](NCc2ccc(-c3ccsc3)cc2OC)[C@H]1NC(C)=O
[1]
  IC50: 1500 nM
[2]
  IC50: 8460 nM

## CCC(CC)O[C@@H]1C=C(C(=O)O)C[C@H](NCc2ccc(OCc3cccc(B(O)O)c3)cc2F)[C@H]1NC(C)=O
[3]
  EC50: 6270 nM
[4]
  CC50 at 48 h: 170000 nM
[1]
  IC50: 38 nM
[2]
  IC50: 1430 nM
[5]
  EC50: 26 nM
[6]
  EC50 at 48 h: > 250000 nM
[7]
  EC50: 6880 nM
[8]
  EC50: > 100000 nM

## CCC(CC)O[C@@H]1C=C(C(=O)O)C[C@H](NCc2cccc(C(=O)Nc3ccc(B(O)O)cc3)c2)[C@H]1NC(C)=O
[1]
  IC50: 1050 nM
[2]
  IC50: 6660 nM

## CCC(CC)O[C@@H]1C=C(C(=O)O)C[C@H](NCc2ccc(OCc3ccc(B(O)O)cc3)c(OC)c2)[C@H]1NC(C)=O
[1]
  IC50: 51800 nM
[2]
  IC50: 28600 nM

## CCC(CC)O[C@@H]1C=C(C(=O)O)C[C@H](NCc2ccc(OCc3cccc(B(O)O)c3)c(C)c2)[C@H]1NC(C)=O
[1]
  IC50: 8090 nM
[2]
  IC50: 11500 nM

## CCC(CC)O[C@@H]1C=C(C(=O)O)C[C@H](NCc2ccc(OCc3ccc(B(O)O)cc3)c(Cl)c2)[C@H]1NC(C)=O
[1]
  IC50: 3950 nM
[2]
  IC50: 7170 nM

## CCC(CC)O[C@@H]1C=C(C(=O)O)C[C@H](NCc2ccc(C(=O)Nc3ccc(B(O)O)cc3)cc2)[C@H]1NC(C)=O
[1]
  IC50: 970 nM
[2]
  IC50: 1640 nM

## CCC(CC)O[C@@H]1C=C(C(=O)O)C[C@H](NCc2ccc(OCc3cccc(B(O)O)c3)c(B(O)O)c2)[C@H]1NC(C)=O
[1]
  IC50: 75 nM
[2]
  IC50: 1780 nM

## CCC(CC)O[C@@H]1C=C(C(=O)O)C[C@H](NCc2ccc(Oc3ccc(B(O)O)cc3)cc2)[C@H]1NC(C)=O
[1]
  IC50: 36 nM
[2]
  IC50: 1450 nM

## CCC(CC)O[C@@H]1C=C(C(=O)O)C[C@H](NCc2ccc(OCc3ccc(B(O)O)cc3)cc2Cl)[C@H]1NC(C)=O
[3]
  EC50: 3570 nM
[4]
  CC50 at 48 h: > 200000 nM
[1]
  IC50: 22 nM
[2]
  IC50: 120 nM
[5]
  EC50: 30 nM
[6]
  EC50 at 48 h: > 250000 nM
[7]
  EC50: > 40000 nM
[8]
  EC50: 4230 nM

## CCC(CC)O[C@@H]1C=C(C(=O)O)C[C@H](NCc2c(C)cc(OCc3ccc(B(O)O)cc3)cc2C)[C@H]1NC(C)=O
[1]
  IC50: 270 nM
[2]
  IC50: 740 nM

## CCC(CC)O[C@@H]1C=C(C(=O)O)C[C@H](NCc2ccccc2OCc2ccc(B(O)O)cc2)[C@H]1NC(C)=O
[1]
  IC50: 1290 nM
[2]
  IC50: 8480 nM

## CCC(CC)O[C@@H]1C=C(C(=O)O)C[C@H](NCc2ccc(OCc3ccc(B(O)O)cc3)cc2F)[C@H]1NC(C)=O
[3]
  EC50: 1590 nM
[4]
  CC50 at 48 h: > 500000 nM
[1]
  IC50: 87 nM
[2]
  IC50: 400 nM
[5]
  EC50: 29 nM
[6]
  EC50 at 48 h: > 250000 nM
[7]
  EC50: 3970 nM
[8]
  EC50: 18500 nM

## CCC(CC)O[C@@H]1C=C(C(=O)O)C[C@H](NCc2c(C)cc(OCc3cccc(B(O)O)c3)cc2C)[C@H]1NC(C)=O
[3]
  EC50: 2540 nM
[4]
  CC50 at 48 h: > 200000 nM
[1]
  IC50: 24 nM
[2]
  IC50: 650 nM
[5]
  EC50: 14 nM
[6]
  EC50 at 48 h: > 250000 nM
[7]
  EC50: 9120 nM
[8]
  EC50: > 100000 nM

## CCC(CC)O[C@@H]1C=C(C(=O)O)C[C@H](NCc2ccc(OCc3ccc(B(O)O)cc3)c(C)c2)[C@H]1NC(C)=O
[1]
  IC50: 8060 nM
[2]
  IC50: 16700 nM

## CCC(CC)O[C@@H]1C=C(C(=O)O)C[C@H](NCc2cccc(OCc3cccc(B(O)O)c3)c2)[C@H]1NC(C)=O
[1]
  IC50: 4910 nM
[2]
  IC50: 4370 nM

## CCC(CC)O[C@@H]1C=C(C(=O)O)C[C@H](NCc2cccc(OCc3ccccc3B(O)O)c2)[C@H]1NC(C)=O
[1]
  IC50: 7020 nM
[2]
  IC50: 7880 nM

## CCC(CC)O[C@@H]1C=C(C(=O)O)C[C@H](NCc2ccc(OCc3cccc(B(O)O)c3)c(F)c2)[C@H]1NC(C)=O
[1]
  IC50: 73 nM
[2]
  IC50: 1830 nM

## CCC(CC)O[C@@H]1C=C(C(=O)O)C[C@H](NCc2ccc(Oc3cccc(B(O)O)c3)cc2)[C@H]1NC(C)=O
[1]
  IC50: 140 nM
[2]
  IC50: 760 nM

## CCC(CC)O[C@@H]1C=C(C(=O)O)C[C@H](NCc2cc(C)c(OCc3cccc(B(O)O)c3)c(C)c2)[C@H]1NC(C)=O
[1]
  IC50: 32300 nM
[2]
  IC50: 8790 nM

## CCC(CC)O[C@@H]1C=C(C(=O)O)C[C@H](NCc2ccc(OCc3cccc(B(O)O)c3)c(Cl)c2)[C@H]1NC(C)=O
[1]
  IC50: 2780 nM
[2]
  IC50: 6660 nM

## CCC(CC)O[C@@H]1C=C(C(=O)O)C[C@H](NCc2ccc(OCc3ccc(B(O)O)cc3)cc2C)[C@H]1NC(C)=O
[3]
  EC50: 6390 nM
[4]
  CC50 at 48 h: > 200000 nM
[1]
  IC50: 74 nM
[2]
  IC50: 110 nM
[5]
  EC50: 11 nM
[6]
  EC50 at 48 h: > 250000 nM
[7]
  EC50: 3550 nM
[8]
  EC50: 10600 nM

## CCC(CC)O[C@@H]1C=C(C(=O)O)C[C@H](NCc2ccc(OCc3ccc(B(O)O)cc3)cc2OC)[C@H]1NC(C)=O
[1]
  IC50: 1750 nM
[2]
  IC50: 510 nM

## CCC(CC)O[C@@H]1C=C(C(=O)O)C[C@H](NCc2ccccc2OCc2cccc(B(O)O)c2)[C@H]1NC(C)=O
[1]
  IC50: 1480 nM
[2]
  IC50: 5080 nM

## CCC(CC)O[C@@H]1C=C(C(=O)O)C[C@H](NCc2ccc(OCc3cccc(B(O)O)c3)c(OC)c2)[C@H]1NC(C)=O
[1]
  IC50: 43500 nM
[2]
  IC50: 23700 nM

## CCC(CC)O[C@@H]1C=C(C(=O)O)C[C@H](NCc2ccc(C(=O)Nc3cccc(B(O)O)c3)cc2)[C@H]1NC(C)=O
[1]
  IC50: 1170 nM
[2]
  IC50: 17100 nM

## CCC(CC)O[C@@H]1C=C(C(=O)O)C[C@H](NCc2ccc(OCc3ccc(B(O)O)cc3)cc2Br)[C@H]1NC(C)=O
[1]
  IC50: 71 nM
[2]
  IC50: 340 nM

## CCC(CC)O[C@@H]1C=C(C(=O)O)C[C@H](NCc2cc(C)c(OCc3ccc(B(O)O)cc3)c(C)c2)[C@H]1NC(C)=O
[1]
  IC50: 19000 nM
[2]
  IC50: 41800 nM

## CCC(CC)O[C@@H]1C=C(C(=O)O)C[C@H](NCc2ccc(OCc3ccc(B(O)O)cc3)c(Br)c2)[C@H]1NC(C)=O
[1]
  IC50: 933000 nM
[2]
  IC50: 17100 nM

## CCC(CC)O[C@@H]1C=C(C(=O)O)C[C@H](NCc2ccc(OCc3cccc(B(O)O)c3)cc2Br)[C@H]1NC(C)=O
[1]
  IC50: 81 nM
[2]
  IC50: 470 nM

## CCC(CC)O[C@@H]1C=C(C(=O)O)C[C@H](NCc2ccc(OCc3ccc(B(O)O)cc3)c(F)c2)[C@H]1NC(C)=O
[1]
  IC50: 100 nM
[2]
  IC50: 650 nM

## CCC(CC)O[C@@H]1C=C(C(=O)O)C[C@H](NCc2ccc(OCc3cccc(B(O)O)c3)cc2OC)[C@H]1NC(C)=O
[1]
  IC50: 790 nM
[2]
  IC50: 950 nM

## CCC(CC)O[C@@H]1C=C(C(=O)O)C[C@H](NCc2cccc(OCc3ccc(B(O)O)cc3)c2)[C@H]1NC(C)=O
[1]
  IC50: 1160 nM
[2]
  IC50: 3310 nM

## CCC(CC)O[C@@H]1C=C(C(=O)O)C[C@H](NCc2cccc(C(=O)Nc3cccc(B(O)O)c3)c2)[C@H]1NC(C)=O
[1]
  IC50: 410 nM
[2]
  IC50: 230 nM

## CCC(CC)O[C@@H]1C=C(C(=O)O)C[C@H](NCc2ccc(OCc3cccc(B(O)O)c3)c(Br)c2)[C@H]1NC(C)=O
[1]
  IC50: 6930 nM
[2]
  IC50: 14100 nM

## O=C(O)Cc1ccccc1Nc1c(Cl)cccc1Cl [DICLOFENAC]
[9]
  microsomal CLint at 2 h: 222 µL/min/mg
[10]
  CLint scaled at 2 h: 200 mL/min/kg

## CCC(CC)O[C@@H]1C=C(C(=O)O)C[C@H](N)[C@H]1NC(C)=O [OSELTAMIVIR CARBOXYLATE]
[3]
  EC50: 1790 nM
[4]
  CC50 at 48 h: > 200000 nM
[1]
  IC50: 61 nM
[11]
  Stability: 114.6%
[9]
  microsomal CLint at 2 h: 13.1 µL/min/mg
[2]
  IC50: 9 nM
[5]
  EC50: 56 nM
[6]
  EC50 at 48 h: > 250000 nM
[10]
  CLint scaled at 2 h: 11.8 mL/min/kg
[7]
  EC50: 8640 nM
[8]
  EC50: 750 nM

## CC(C)NCC(O)COc1cccc2ccccc12 (stereo not drawn) [PROPRANOLOL]
[12]
  remaining at 2 h: 0.5%

## C[C@]12CC[C@H]3[C@@H](CCC4=CC(=O)CC[C@@]43C)[C@@H]1CC[C@@H]2O [TESTOSTERONE]
[12]
  remaining at 2 h: 4.1%

## CC(=O)N[C@H]1[C@H]([C@H](O)[C@H](O)CO)OC(C(=O)O)=C[C@@H]1NC(=N)N [ZANAMIVIR]
[2]
  IC50: 38 nM
